How the values were obtained:
eosinophils in BALF = assay: Antigen-induced respiratory eosinophil infiltration in rat (BALF); assay type: in vivo, BN rats; details: Compound (I) 30 μg/rat, budesonide 10 μg/rat; for Inhibition ratio (number of eosinophils) / Number of eosinophils: OVA-sensitized BN rats, intrabronchial 30 min before antigen challenge, BAL 24 h after; for Number of eosinophils: mean±standard error
Description: (§1) Inhibitory Effect of Combined Administration of Compound (I) and Steroid Agent on Antigen-Induced Respiratory Eosinophil and Neutrophil Infiltration in Rat
(§2) The test was conducted according to a known method (Pulmonary Pharmacology, vol. 8, pp. 83-89 (1995)).
(§3) In the test, 6-week-old male BN rats (Charles River Japan) were used. The rats were placed in aluminum cages each containing 5 to 6 rats in a breeding room at room temperature (19° C. to 25° C.) and a humidity of 30% to 70% under illumination for 12 hours a day (7 a.m. to 7 p.m.) and bred by free intake of commercially available feeds and water.
(§4) A preparation (Compound (I)-lactose preparation) containing 5 mg of lactose (produced by DVM Corporation) to 1 mg of Compound (I) was prepared, and a suspension for administering Compound (I) was prepared by suspending the Compound (I)-lactose preparation in a 0.125 wt/vol % tyloxapol aqueous solution (ALEVAIRE: registered trade mark, produced by Azwell Inc.) so that the concentration of Compound (I) was 150 μg/mL. Also, a suspension for administering budesonide was prepared by suspending lactose and budesonide (manufactured by Sigma Corporation) in a 0.125 wt/vol % tyloxapol aqueous solution so that the concentrations of lactose and budesonide were 750 μg/mL and 50 μg/mL, respectively. Furthermore, a suspension for combined administration was prepared by suspending budesonide and the Compound (I)-lactose preparation prepared as described above in a 0.125 wt/vol % tyloxapol aqueous solution so that the concentrations of budesonide and Compound (I) were 50 μg/mL and 150 μg/mL, respectively. On the other hand, a solvent for administration was prepared by dissolving lactose in a 0.125 wt/vol % tyloxapol aqueous solution so that the concentration was 7.5 mg/mL.
The rats were subcutaneously administered with 1 mL of a suspension of 1 mg of ovalbumin (OVA, manufactured by Sigma Co.) and 200 mg of aluminum hydroxide (manufactured by Wako Pure Chemicals Industries, Ltd.) suspended in 1 mL of physiological saline (manufactured by Otsuka Pharmaceutical Co., Ltd.). Then, 0.5 mL of a suspension of killed Bordetella pertussis cells (2×10^10 cells/1 mL physiological saline, manufactured by Kaken Pharmaceutical Co., Ltd.) was intraperitoneally administered to perform active sensitization. Fourteen days after the active sensitization, the rats were placed in a plastic chamber (30×50×30 cm), and an 1 wt/vol % OVA physiological saline solution was nebulized for 10 minutes using an ultrasonic nebulizer (manufactured by Omron Corporation) to perform antigen challenge. Thirty minutes before the antigen-challenge, 100 μL of each of the suspensions for administration prepared as described above was intrabronchially administered to each of the right and left bronchi, i.e., administered in a total of 200 μL (medicine-administered group). Similarly, thirty minutes before the antigen challenge, a group which the solvent for administration was intrabronchially administered (solvent-administered group) was prepared. Also, a group which the solvent for administration was intrabronchially administered and a physiological saline was nebulized instead of the 1 wt/vol % OVA physiological saline solution (physiological saline-administered group) was prepared. […]
(§5) The total number of the leukocytes in BALF was measured with an automatic leukocyte counter (manufactured by Nihon Kohden Corporation). […]

neutrophils in BALF = assay: Antigen-induced respiratory neutrophil infiltration in rat (BALF); assay type: in vivo, BN rats; details: Compound (I) 30 μg/rat, budesonide 10 μg/rat; for Number of neutrophils: mean±standard error
Description: as §1, §2, §3, §4
The rats were subcutaneously administered with 1 mL of a suspension of 1 mg of ovalbumin (OVA, manufactured by Sigma Co.) and 200 mg of aluminum hydroxide (manufactured by Wako Pure Chemicals Industries, Ltd.) suspended in 1 mL of physiological saline (manufactured by Otsuka Pharmaceutical Co., Ltd.). Then, 0.5 mL of a suspension of killed Bordetella pertussis cells (2×10^10 cells/1 mL physiological saline, manufactured by Kaken Pharmaceutical Co., Ltd.) was intraperitoneally administered to perform active sensitization. Fourteen days after the active sensitization, the rats were placed in a plastic chamber (30×50×30 cm), and an 1 wt/vol % OVA physiological saline solution was nebulized for 10 minutes using an ultrasonic nebulizer (manufactured by Omron Corporation) to perform antigen challenge. […]
as §5

[1] = OVA-sensitized BN rats, intrabronchial 30 min before antigen challenge, BAL 24 h after

Compound | Inhibition ratio (number of eosinophils) (eosinophils in BALF) [%] | Number of eosinophils (eosinophils in BALF) | Number of neutrophils (neutrophils in BALF; [1]) | Inhibitory effect against increases in the number of eosinophils in BALF (in words) (eosinophils in BALF; sole or combined) | Effect on the number of neutrophils in BALF (in words) (neutrophils in BALF; sole or combined) | Inhibition ratio (number of neutrophils) (neutrophils in BALF; OVA-sensitized BN rats, intrabronchial 30 min before antigen challenge, BAL 24 h after, N.E. = No effect) [%]
CCCC1O[C@@H]2C[C@H]3[C@@H]4CCC5=CC(=O)C=C[C@]5(C)[C@H]4[C@@H](O)C[C@]3(C)[C@]2(C(=O)CO)O1 (stereo partly drawn) [Budesonide, budesonide, reference compound] | 54 | 0.26 ± 0.06 10^6/BALF | 2.50 ± 0.31 10^6/BALF | – | – | –
COc1ccc(C(=O)Cc2c(Cl)cncc2Cl)c2c1OC1(CCCC1)O2 [Compound (I), 7-[2-(3,5-dichloro-4-pyridyl)-1-oxoethyl]-4-methoxy-spiro[1,3-benzodioxol-2,1′-cyclopentane]] | 54 | 0.26 ± 0.08 10^6/BALF | 2.28 ± 0.27 10^6/BALF | inhibitory effect against increases in the number of eosinophils was exhibited | not significantly affected | 3
